From ChEMBL document CHEMBL1909294, “Translating clinical findings into knowledge in drug safety evaluation--drug induced liver injury prediction system (DILIps)” (PLoS Comput Biol, 2011)

Experiments:
[1] = tested on: Hepatotoxicity;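 on HepSE Combined Scores: combined hepatic side effect score as listed in the training data of the Drug Induced Liver Injury Prediction System (DILIps)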;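 on HepSE bilirubinemia: bilirubinemia hepatic side effect score drawn from the DILIps training data, a prediction system for drug-induced liver injury; call rule not given here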;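 on HepSE cholelithiasis: hepatic side effect score for cholelithiasis, drawn from the DILIps training data for predicting drug-induced liver injury; call rule not given here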;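 on HepSE cirrhosis: cirrhosis hepatic side effect score taken from the DILIps (drug-induced liver injury prediction) training set; call rule not given here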; on HepSE hepatic failure: call rule not given here;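 on HepSE hepatomegaly: hepatic side effect score for hepatomegaly, taken from the training set of the DILIps drug-induced liver injury prediction system; call rule not given here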; on HepSE liver disease: call rule not given here;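 on HepSE liver function tests abnormal: hepatic side effect score taken from the DILIps (drug-induced liver injury prediction system) training data, here covering abnormal liver function test findings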
[2] = tested on: Hepatotoxicity; remark: listed apart in the source;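 on HepSE Combined Scores: combined hepatic side effect score as listed in the training data of the Drug Induced Liver Injury Prediction System (DILIps)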;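 on HepSE bilirubinemia: bilirubinemia hepatic side effect score drawn from the DILIps training data, a prediction system for drug-induced liver injury; call rule not given here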;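 on HepSE cholelithiasis: hepatic side effect score for cholelithiasis, drawn from the DILIps training data for predicting drug-induced liver injury; call rule not given here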;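 on HepSE cirrhosis: cirrhosis hepatic side effect score taken from the DILIps (drug-induced liver injury prediction) training set; call rule not given here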; on HepSE hepatic failure: call rule not given here;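 on HepSE hepatomegaly: hepatic side effect score for hepatomegaly, taken from the training set of the DILIps drug-induced liver injury prediction system; call rule not given here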; on HepSE liver disease: call rule not given here
[3] = tested on: Hepatotoxicity; remark: listed apart in the source;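 on HepSE Combined Scores: combined hepatic side effect score as listed in the training data of the Drug Induced Liver Injury Prediction System (DILIps)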;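 on HepSE bilirubinemia: bilirubinemia hepatic side effect score drawn from the DILIps training data, a prediction system for drug-induced liver injury; call rule not given here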;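 on HepSE cholelithiasis: hepatic side effect score for cholelithiasis, drawn from the DILIps training data for predicting drug-induced liver injury; call rule not given here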;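 on HepSE cirrhosis: cirrhosis hepatic side effect score taken from the DILIps (drug-induced liver injury prediction) training set; call rule not given here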; on HepSE hepatic failure: call rule not given here;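 on HepSE hepatomegaly: hepatic side effect score for hepatomegaly, taken from the training set of the DILIps drug-induced liver injury prediction system; call rule not given here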; on HepSE liver disease: call rule not given here
[4] = tested on: Hepatotoxicity; remark: listed apart in the source;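 on HepSE Combined Scores: combined hepatic side effect score as listed in the training data of the Drug Induced Liver Injury Prediction System (DILIps)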;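 on HepSE bilirubinemia: bilirubinemia hepatic side effect score drawn from the DILIps training data, a prediction system for drug-induced liver injury; call rule not given here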;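 on HepSE cholelithiasis: hepatic side effect score for cholelithiasis, drawn from the DILIps training data for predicting drug-induced liver injury; call rule not given here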;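 on HepSE cirrhosis: cirrhosis hepatic side effect score taken from the DILIps (drug-induced liver injury prediction) training set; call rule not given here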; on HepSE hepatic failure: call rule not given here;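 on HepSE hepatomegaly: hepatic side effect score for hepatomegaly, taken from the training set of the DILIps drug-induced liver injury prediction system; call rule not given here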; on HepSE liver disease: call rule not given here
[5] = tested on: Hepatotoxicity; remark: listed apart in the source; on HepSE hepatic failure: call rule not given here; on HepSE liver disease: call rule not given here
[6] = tested on: Hepatotoxicity; remark: listed apart in the source; on HepSE hepatic failure: call rule not given here; on HepSE liver disease: call rule not given here
[7] = tested on: Hepatotoxicity; remark: listed apart in the source
[8] = tested on: Hepatotoxicity; remark: listed apart in the source
[9] = tested on: Hepatotoxicity; remark: listed apart in the source
[10] = tested on: Hepatotoxicity; remark: listed apart in the source
[11] = tested on: Hepatotoxicity; remark: listed apart in the source
[12] = tested on: Hepatotoxicity; remark: listed apart in the source
[13] = tested on: Hepatotoxicity; remark: listed apart in the source
[14] = tested on: Hepatotoxicity; remark: listed apart in the source

SMILES	HepSE_hepatomegaly [1]	HepSE_cholelithiasis [2]	HepSE_bilirubinemia [3]	HepSE_Combined Scores [4]	HepSE_cirrhosis [5]	HepSE_liver disease [6]	HepSE_hepatic necrosis [7]	HepSE_hepatic failure [8]	HepSE_hepatitis [9]	HepSE_liver function tests abnormal [10]	HepSE_cholecystitis [11]	HepSE_liver fatty [12]	HepSE_jaundice [13]	HepSE_elevated liver function tests [14]	further results
O=C1CN=C(c2ccccc2)c2cc([N+](=O)[O-])ccc2N1 [NITRAZEPAM]	0	0	0	0	0	0	0	0	0	0	0	0	0	0	–
[N]=O [NITRIC OXIDE]	0	0	0	0	0	0	0	0	0	0	0	0	0	0	–
O=C1CN(/N=C/c2ccc([N+](=O)[O-])o2)C(=O)N1 [NITROFURANTOIN]	–	–	–	–	–	–	–	–	–	–	–	–	–	–	HepSE_hepatomegaly ([1]; Liver): 0; HepSE_cholelithiasis ([2]; Liver): 0; HepSE_bilirubinemia ([3]; Liver): 0; HepSE_Combined Scores ([4]; Liver): 3; HepSE_cirrhosis ([5]; Liver): 0; HepSE_liver disease ([6]; Liver): 0; HepSE_hepatic necrosis ([7]; Liver): 1; HepSE_hepatic failure ([8]; Liver): 0; HepSE_hepatitis ([9]; Liver): 1; HepSE_liver function tests abnormal ([10]; Liver): 0; HepSE_cholecystitis ([11]; Liver): 0; HepSE_liver fatty ([12]; Liver): 0; HepSE_jaundice ([13]; Liver): 1; HepSE_elevated liver function tests ([14]; Liver): 0
O=[N+]([O-])OCC(CO[N+](=O)[O-])O[N+](=O)[O-] [NITROGLYCERIN]	0	0	0	0	0	0	0	0	0	0	0	0	0	0	–
CNC(=C[N+](=O)[O-])NCCSCc1csc(CN(C)C)n1 [NIZATIDINE]	0	0	0	2	0	0	0	0	1	0	0	0	1	0	–
NC[C@H](O)c1ccc(O)c(O)c1 [NOREPINEPHRINE]	0	0	0	0	0	0	0	0	0	0	0	0	0	0	–
CCn1cc(C(=O)O)c(=O)c2cc(F)c(N3CCNCC3)cc21 [NORFLOXACIN]	–	–	–	–	–	–	–	–	–	–	–	–	–	–	HepSE_hepatomegaly ([1]; Liver): 0; HepSE_cholelithiasis ([2]; Liver): 0; HepSE_bilirubinemia ([3]; Liver): 0; HepSE_Combined Scores ([4]; Liver): 5; HepSE_cirrhosis ([5]; Liver): 0; HepSE_liver disease ([6]; Liver): 0; HepSE_hepatic necrosis ([7]; Liver): 1; HepSE_hepatic failure ([8]; Liver): 1; HepSE_hepatitis ([9]; Liver): 1; HepSE_liver function tests abnormal ([10]; Liver): 0; HepSE_cholecystitis ([11]; Liver): 0; HepSE_liver fatty ([12]; Liver): 0; HepSE_jaundice ([13]; Liver): 1; HepSE_elevated liver function tests ([14]; Liver): 1
CNCCC=C1c2ccccc2CCc2ccccc21 [NORTRIPTYLINE]	–	–	–	–	–	–	–	–	–	–	–	–	–	–	HepSE_hepatomegaly ([1]; Liver): 0; HepSE_cholelithiasis ([2]; Liver): 0; HepSE_bilirubinemia ([3]; Liver): 0; HepSE_Combined Scores ([4]; Liver): 3; HepSE_cirrhosis ([5]; Liver): 0; HepSE_liver disease ([6]; Liver): 0; HepSE_hepatic necrosis ([7]; Liver): 1; HepSE_hepatic failure ([8]; Liver): 0; HepSE_hepatitis ([9]; Liver): 1; HepSE_liver function tests abnormal ([10]; Liver): 0; HepSE_cholecystitis ([11]; Liver): 0; HepSE_liver fatty ([12]; Liver): 0; HepSE_jaundice ([13]; Liver): 1; HepSE_elevated liver function tests ([14]; Liver): 0
CC1COc2c(N3CCN(C)CC3)c(F)cc3c(=O)c(C(=O)O)cn1c23 (configuration not stated) [OFLOXACIN]	0	1	0	6	0	0	1	1	1	0	1	0	1	0	–
Cc1cc2c(s1)Nc1ccccc1N=C2N1CCN(C)CC1 [OLANZAPINE]	0	0	1	4	0	0	0	0	1	0	0	1	1	0	–
CCCc1nc(C(C)(C)O)c(C(=O)OCc2oc(=O)oc2C)n1Cc1ccc(-c2ccccc2-c2nnn[nH]2)cc1 [OLMESARTAN MEDOXOMIL]	0	0	0	1	0	0	0	0	0	0	0	0	1	0	–
CN(C)CC/C=C1/c2ccccc2COc2ccc(CC(=O)O)cc21 [OLOPATADINE]	0	0	0	0	0	0	0	0	0	0	0	0	0	0	–
COc1ccc2[nH]c([S+]([O-])Cc3ncc(C)c(OC)c3C)nc2c1 (configuration not stated) [OMEPRAZOLE]	0	1	1	7	0	1	1	1	1	0	0	0	1	0	–
Cc1nccn1CC1CCc2c(c3ccccc3n2C)C1=O (configuration not stated) [ONDANSETRON]	0	0	0	2	0	1	0	1	0	0	0	0	0	0	–
CCCCCCCCCCC[C@@H](C[C@@H]1OC(=O)[C@H]1CCCCCC)OC(=O)[C@H](CC(C)C)NC=O [ORLISTAT]	0	0	0	1	0	0	0	0	1	0	0	0	0	0	–
Cc1ccccc1C(OCCN(C)C)c1ccccc1 (configuration not stated) [ORPHENADRINE]	0	0	0	0	0	0	0	0	0	–	0	0	0	–	HepSE_liver function tests abnormal ([10]; Liver): 0; HepSE_elevated liver function tests ([14]; Liver): 0
CCOC(=O)C1=C[C@@H](OC(CC)CC)[C@H](NC(C)=O)[C@@H](N)C1 [OSELTAMIVIR]	0	0	0	3	0	0	0	1	1	1	0	0	0	0	–
Cc1onc(-c2ccccc2)c1C(=O)N[C@@H]1C(=O)N2[C@@H]1SC(C)(C)[C@@H]2C(=O)O [OXACILLIN]	0	0	0	1	0	0	0	0	0	1	0	0	0	0	–
